Source: patent US10800788B2, “4-(aryl)-N-(3-alkoxyfuro[2,3-b]pyrazin-2-yl)-piperazine-1-carboxamide derivative and antiproliferative effect thereof” (Dongguk University Industry-Academic Cooperation Foundation, priority 2016, dated 2020)

Columns and labels:
[1] = tested on: MDA-MB-231 (breast cancer) cell line; experiment: Cell growth inhibition experiment (SRB), MDA-MB-231; type: cell-based, human; settings: Homo sapiens, MDA-MB-231, 96 h, 96 hours incubation
Outline: (§1)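 Cells in DMEM with 10% FBS were seeded at 2 to 3×10^3 cells/well, dosed the next day and incubated 96 hours at 37° C, 5% CO2. After TCA fixation and sulforhodamine B staining, OD530 was converted to viable cell number with a per-line standard curve. % survival is test over control; triplicate runs.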

HEK293 = experiment: Cell growth inhibition experiment (SRB), HEK293; type: cell-based, human; settings: Homo sapiens, HEK293, 96 h, 96 hours incubation, read-out: IC50 (μM) for cancer cell line HEK293
Outline: (§2)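 Cells seeded at 2 to 3×10^3 cells/well, grown overnight, then exposed to compound for 96 hours in triplicate. Growth measured by SRB staining with absorbance at 530 nm; OD530 converted to viable cell number via each line's standard curve, survival expressed relative to untreated control.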

A549 = experiment: Cell growth inhibition experiment (SRB), A549; type: cell-based; settings: Homo sapiens, A549, 96 h, 96 hours incubation, read-out: IC50 (μM) for cancer cell line A549
Outline: as §2

SK-OV-3 = experiment: Cell growth inhibition experiment (SRB), SK-OV-3; type: cell-based, human; settings: Homo sapiens, SK-OV-3, 96 h, 96 hours incubation, read-out: IC50 (μM) for cancer cell line SK-OV-3
Outline: as §2

[2] = tested on: PANC-1 (pancreatic cancer) cell line; experiment: Cell growth inhibition experiment (SRB), PANC-1; type: cell-based; settings: Homo sapiens, PANC-1, 96 h, 96 hours incubation
Outline: as §1

HT29 = experiment: Cell growth inhibition experiment (SRB), HT29; type: cell-based, human; settings: Homo sapiens, HT-29, 96 h, 96 hours incubation, read-out: IC50 (μM) for cancer cell line HT29
Outline: as §2

[3] = tested on: HN31 (head and neck cancer) cell line; experiment: Cell growth inhibition experiment (SRB), HN31; type: cell-based, human; settings: Homo sapiens, 96 h, 96 hours incubation
Outline: as §1

[4] = tested on: UMRC2 (kidney cancer) cell line; experiment: Cell growth inhibition experiment (SRB), UMRC2; type: cell-based, human; settings: Homo sapiens, UMRC2, 96 h, 96 hours incubation
Outline: as §1

HUVEC = experiment: Cell growth inhibition experiment (SRB), HUVEC; type: cell-based, human; settings: Homo sapiens, HUVEC, 96 h, 96 hours incubation, read-out: IC50 (μM) […]
Outline: as §2

Row | SMILES | IC50 [1] [µM] | IC50 (HEK293) [µM] | IC50 (A549) [µM] | IC50 (SK-OV-3) [µM] | IC50 [2] [µM] | IC50 (HT29) [µM] | IC50 [3] [µM] | IC50 [4] [µM] | IC50 (HUVEC) [µM]
1 | CCOc1nc2oc(C)cc2nc1NC(=O)N1CCN(c2cc(F)cc(OC)c2)CC1 [Example 33, N-(3-Ethoxy-6-methylfuro[2,3-b]pyrazin-2-yl)-4-(3-fluoro-5-methoxyphenyl)piperazine-1-carboxamide] | 0.15 | 0.51 | 0.41 | < 2.5 | 0.24 | < 2.5 | 0.31 | 0.21 | < 2.5
2 | CCOc1nc2oc(C)cc2nc1NC(=O)N1CCN(c2cccc(OC(F)(F)F)c2)CC1 [Example 40, N-(3-Ethoxy-6-methylfuro[2,3-b]pyrazin-2-yl)-4-(3-(trifluoromethoxy)phenyl)piperazine-1-carboxamide] | < 2.5 | < 2.5 | < 2.5 | < 2.5 | < 2.5 | < 2.5 | < 2.5 | < 2.5 | < 2.5
3 | CCOc1nc2occc2nc1NC(=O)N1CCN(c2cc(F)cc(C(F)(F)F)c2)CC1 [Example 18, N-(3-Ethoxyfuro[2,3-b]pyrazin-2-yl)-4-(3-fluoro-5-(trifluoromethyl)phenyl)piperazine-1-carboxamide] | 0.44 | < 2.5 | < 2.5 | < 2.5 | < 2.5 | < 2.5 | < 2.5 | 0.24 | < 2.5
4 | COc1cc(F)cc(N2CCN(C(=O)Nc3nc4cc(C)oc4nc3OC)CC2)c1 [Example 23, 4-(3-Fluoro-5-methoxyphenyl)-N-(3-methoxy-6-methylfuro[2,3-b]pyrazin-2-yl)piperazine-1-carboxamide] | 0.36 | 0.35 | 0.63 | 0.36 | 0.44 | 0.28 | 0.28 | 0.44 | 0.45
5 | COc1nc2oc(C)cc2nc1NC(=O)N1CCN(c2cc(F)cc(F)c2)CC1 [Example 27, 4-(3,5-Difluorophenyl)-N-(3-methoxy-6-methylfuro[2,3-b]pyrazin-2-yl)piperazine-1-carboxamide] | 0.56 | < 2.5 | < 2.5 | < 2.5 | < 2.5 | < 2.5 | < 2.5 | 1.13 | < 2.5
6 | CCOc1nc2oc(Cl)cc2nc1NC(=O)N1CCN(c2cc(C)cc(F)c2)CC1 [Example 56, N-(6-Chloro-3-ethoxyfuro[2,3-b]pyrazin-2-yl)-4-(3-fluoro-5-methylphenyl)piperazine-1-carboxamide] | 0.36 | < 2.5 | < 2.5 | < 2.5 | 1.68 | < 2.5 | 1.75 | 0.87 | < 2.5
7 | CCOc1nc2oc(Cl)cc2nc1NC(=O)N1CCN(c2cc(F)cc(F)c2)CC1 [Example 57, N-(6-Chloro-3-ethoxyfuro[2,3-b]pyrazin-2-yl)-4-(3,5-difluorophenyl)piperazine-1-carboxamide] | < 2.5 | < 2.5 | < 2.5 | < 2.5 | < 2.5 | < 2.5 | < 2.5 | < 2.5 | < 2.5
8 | COc1nc2occc2nc1NC(=O)N1CCN(c2cccc(OC(F)(F)F)c2)CC1 [Example 10, N-(3-Methoxyfuro[2,3-b]pyrazin-2-yl)-4-(3-(trifluoromethoxy)phenyl)piperazine-1-carboxamide] | 1.02 | 0.56 | 1.14 | 1.23 | 0.68 | 1.27 | 0.28 | 1.13 | 1.36
9 | CCOc1nc2oc(C)cc2nc1NC(=O)N1CCN(c2cc(F)cc(C(F)(F)F)c2)CC1 [Example 38, N-(3-Ethoxy-6-methylfuro[2,3-b]pyrazin-2-yl)-4-(3-fluoro-5-(trifluoromethyl)phenyl)piperazine-1-carboxamide] | < 2.5 | < 2.5 | < 2.5 | < 2.5 | < 2.5 | < 2.5 | < 2.5 | < 2.5 | < 2.5
10 | COc1cc(F)cc(N2CCN(C(=O)Nc3nc4ccoc4nc3OC)CC2)c1 [Example 3, 4-(3-Fluoro-5-methoxyphenyl)-N-(3-methoxyfuro[2,3-b]pyrazin-2-yl)piperazine-1-carboxamide] | 0.24 | < 2.5 | 2.11 | 0.85 | 0.56 | 1.53 | 0.71 | 0.06 | < 2.5
11 | COc1nc2oc(C)cc2nc1NC(=O)N1CCN(c2cccc(OC(F)(F)F)c2)CC1 [Example 30, N-(3-Methoxy-6-methylfuro[2,3-b]pyrazin-2-yl)-4-(3-(trifluoromethoxy)phenyl)piperazine-1-carboxamide] | 0.68 | 0.58 | 0.25 | 1.12 | 0.54 | 1.12 | 1.32 | 0.63 | 1.12
